Legend:
serum at 1:200 dilution = assay: Acetylamantadine competitive ELISA using serum at 1:200 dilution (FIG. 5); assay type: binding, rabbit; settings: serum 1:200; coating 2 ug/ml streptavidin and 6 ng/ml biotinylated acetylamantadine; tested 0.025 to 250 ng/ml
Method: It will accordingly be understood by a person skilled in the art that the immunological assay disclosed herein may be used to detect or quantify acetylamantadine in a patient who has taken a small dose of amantadine. This is shown in FIG. 5 which illustrates the results of an acetylamandine competitive ELISA with signal reading against acetylamantadine competitive concentration. The ELISA plate coating was 2 ug/ml streptavidin and 6 ng/ml biotinylated acetylamantadine. The competition ELISA using serum at 1:200 dilution against acetylamantadine ranging from 0.025 ng/ml to 250 ng/ml. Complete inhibition inhibition occurs near 100 ng/ml of soluble acetylamantadine. The detection limit (sensitivity) is near 0.5 ng/ml to 1.0 ng/ml The quantification of acetylamantadine can be used to quantify SSAT activity and elevated SSAT activity is an indication of diseases including, but not limited, to inflammations and cancers.

[1] = molecular target: serum of a rabbit immunized repeatedly against acetylamantadine; assay: Competitive ELISA with serum of a rabbit immunized repeatedly against acetylamantadine; assay type: binding; settings: dilution of serum; FIG. 4
Method: A New Zealand white rabbit was immunized intramuscularly with 250 μg of the acetylamantadine-ovalbumin conjugate emulsified in complete Freund's adjuvant. The rabbit was boosted multiple times with acetylamantadine-ovalbumin conjugate, twice with 100 μg of acetylamantadine-conjugate keyhole-limpet hemocyanin and once with 4 pg of avidin coupled with an excess of biotinylated acetylamantadine with alum as an adjuvant. The rabbit was boosted with 100 μg of the acetylamantadine-ovalbumin conjugate 14 days before the rabbit was euthanized and bled out.
The rabbit blood was allowed to clot and the sera were collected. […]
Enzyme-linked immunosorbent assay (ELISA) plates were coated with the biotin-binding protein streptavidin at 2 μg/mL and blocked with skim milk. […] The soluble acetylamantadine or the amatidine was titrated in a separate 96-well plate and incubated for an hour with a small, previously determined concentration of anti-acetylamantadine affinity-purified antibodies absorbed with amantadine that gives a clear signal in the ELISA plates coated with acetylamantadine. […]
The ELISA was incubated for two hours and then the ELISA was developed by adding goat antibodies against rabbit IgG conjugated with alakine phosphatase. The substrate was added and the ELISA developed by standard methods and the optical densities were assayed by an ELISA reader and are shown in FIG. 1. […]

[2] = molecular target: affinity-purified antibodies against acetylamantadine; assay: Competitive ELISA with affinity-purified antibodies against acetylamantadine, not absorbed with amantadine; assay type: binding, rabbit; settings: FIG. 3
[3] = molecular target: anti-acetylamantadine affinity-purified antibodies absorbed with amantadine; assay: Competitive ELISA with affinity-purified antibodies against acetylamantadine absorbed with amantadine; assay type: binding, rabbit; settings: soluble competitor incubated one hour with antibodies; plates coated with streptavidin and biotinylated acetylamantadine 2 ng/mL; FIG. 2
Method: The affinity-purified antibodies against acetylamantadine were flowed over a column of cyanogen-bromide coupled agarose beads conjugated with amantadine and the peak of IgG was taken.
Enzyme-linked immunosorbent assay (ELISA) plates were coated with the biotin-binding protein streptavidin at 2 μg/mL and blocked with skim milk. The ELISA plates were then washed with phosphate-buffered saline with an automated washer. Biotinylated acetylamantadine at 2 ng/mL was added to the streptavidin-coated ELISA plates so that acetylamantadine was bound to the streptavidin. The ELISA plates were then washed to remove the free biotinylated acetylamantadine. The soluble acetylamantadine or the amatidine was titrated in a separate 96-well plate and incubated for an hour with a small, previously determined concentration of anti-acetylamantadine affinity-purified antibodies absorbed with amantadine that gives a clear signal in the ELISA plates coated with acetylamantadine. […]
The ELISA was incubated for two hours and then the ELISA was developed by adding goat antibodies against rabbit IgG conjugated with alakine phosphatase. The substrate was added and the ELISA developed by standard methods and the optical densities were assayed by an ELISA reader and are shown in FIG. 1. […] If one makes quadruplicate assays of samples of urine, one can accurately quantify acetylamantadine in the assay. […]

| SMILES | concentration at which complete inhibition occurs (serum at 1:200 dilution) | concentration giving significant inhibition (50%) of the binding in the ELISA [1] | concentration giving significant inhibition (50%) of the binding in the ELISA [2] | concentration giving significant inhibition (50%) of the binding in the ELISA [3] |
| --- | --- | --- | --- | --- |
| CC(=O)NC12CC3CC(CC(C3)C1)C2 [acetylamantadine] | ~100 ng/mL | ~300 pg/mL | ~1.3 ng/mL | ~400 pg/mL |
| NC12CC3CC(CC(C3)C1)C2 [amantadine] |  | 1e+08 pg/mL | 100000 ng/mL | 4e+07 pg/mL |

— patent US20160223527A1, “An Immunological Assay To Detect And Quantify Acetylamantadine” (BIOMARK TECHNOLOGIES INC, priority 2013, published 2016)
